Assay results: patent publication US11723957B2, “Compositions comprising relaxin and methods of use thereof” (Beth Israel Deaconess Medical Center, Inc., priority 2016, dated 2023)
Where “and” joins values, the source holds several entries; their conditions need not be identical. Identical values can stand only once. Entries after “also recorded” stand apart in the source; their conditions may differ. No end group written: not given here.

Experiments:
[1] = tested on: NIH 373 murine fibroblasts; assay: cAMP levels in fibroblasts exposed to relaxin; assay type: cell-based; details: cultured NIH 373 murine fibroblasts exposed to relaxin
Description: The activity of recombinant relaxin (RLN2) was validated by measuring upregulation in the production of cAMP, a secondary metabolite of the relaxin signaling pathway. Increases in cAMP lead to increased MMP expression and decreased collagen and TIMP expression. To validate the activity of RLN2, cultured NIH 373 murine fibroblasts were exposed to relaxin, and the resulting cAMP levels were measured.

[2] = in vivo; cited from earlier work
[3] = tested on: rat shoulder contracture model (glenohumeral joint); assay: ROM measurement in rat shoulder contracture model (Example 2); assay type: in vivo, Sprague Dawley rats; details: for Final ROM, Total ROM: 8 weeks follow-up; for Difference ROM (% Δ°), External ROM / Difference ROM (% Δ°), Internal ROM / Difference ROM (% Δ°), Total ROM: final versus baseline
Description: On the approval of the Institutional Animal Care and Use Committee (IACUC) at Beth Israel Deaconess Medical Center, 20 Female Sprague Dawley rats (250-300 g, Charles River Laboratories, Inc., Wilmington, Mass., USA) were chosen for this study. Baseline ROM measurements were taken for both forelimbs of each rat prior to any surgical intervention. Torque measurements were recorded at […] (τINT) and 60° of external rotation (τOUT), totaling a full 160° range of motion (ROM) (FIG. 4, Panels B and C). These measurements were required as they indicate a baseline for normal torque necessary to achieve both rotations. The specific rotation angles were chosen under fluoroscopic guidance to ensure minimal scapular recruitment, while simultaneously allowing for maximum humeral rotation within the joint space. Each ROM measurement was repeated three times to ensure consistency. All measurements were also performed under anesthesia to prevent any active muscle activation from interfering with the passive capsular resistance. Induction of the rats was performed at 5% isoflurane inhalation, and maintenance was managed at a 2% isoflurane dose.
After the baseline measurements and under anesthesia, 20 rats were subjected to the immobilization procedure as outlined in Example 1 and in Villa-Camacho et al., Journal of Shoulder and Elbow Surgery, 2015, 24(11):1809-16, to induce fibrosis. In short, an incision was created longitudinally on the left limb, perpendicular to the scapular spine, to expose both the scapula and humerus. A No. 2-0 Ethibond polyester suture (Ethicon, San Lorenzo, PR, USA) was used to immobilize the humerus to the scapula by passing two loops through the medial border of the scapula and against the humeral shaft (FIG. 4, Panel A). Care was taken to ensure that the sutures avoided critical vasculature, musculature, and nerves. Each rat was maintained under fixation for 8 weeks. After the eighth week, the suture fixations were removed, and the rats were randomly placed in four groups: (1) intra-articular relaxin, single dose (IAS) (n=5); (2) intra-articular relaxin, multiple doses (IAM) (n=5); (3) intravenous relaxin, multiple doses (IVM) (n=5); and (4) untreated surgical controls (n=5). The sample size was determined with a power of 0.80 and α=0.05 if a 10% increase in range of motion from contracture was to be expected.
The mechanical testing apparatus was assembled with four core components and controlled with a computer through custom-built software written on MATLAB 7.13.0.564 (The MathWorks, Inc., Natick, Mass., USA). Movement of the forelimb was mediated by a stepper motor controlled by a microcontroller (UNO R3; Arduino, Torino, Italy). The motor was then positioned axially with the reaction torque sensor (TFF400; FUTEK Advanced Sensor Technology, Inc., Irvine, Calif., USA), which measured torque and was utilized as an input feedback for the system. Along the same axis, the arm clamp and the 3-axis inclinometer (3DM-GX3-15; MicroStrain, Inc., Williston, Vt., USA) were attached on the sensing side of the torque sensor. The inclinometer also provided both positional feedback as well as angular measurements for the system. The entire assembly was positioned above the rat with the sensing plane parallel to the ground to ensure that gravity had little impact on the torque measurements (FIG. 4). The apparatus was programmed to move to a specified torque or angle for internal and external rotation for each rat. Plastic zip ties were used to secure the rat forelimb in the apparatus. Care was taken to prevent any injury, and the apparatus was programmed with an internal and external limit switch in the case the apparatus operated abnormally.
Immediately after removal of the restraining sutures, relaxin was administered to the noncontrol group rats. […]

[4] = tested on: glenohumeral joint capsule and articular cartilage; assay type: in vivo, Sprague Dawley rats
From the text: At the conclusion of the follow-up period, the rats were euthanized according to IACUC guidelines. The rats were weighed and then subjected to CO2 exposure for euthanasia, and further confirmed through a bilateral thoracotomy. The shoulders were bilaterally harvested by disarticulating the humerus from the ulna, and removing the scapula from the clavicle and thoracic cavity. Excess muscle tissue not immediately surrounding the glenohumeral joint capsule was removed. The excised shoulders were decalcified for two months in a solution of ethylenediaminetetraacetic acid (EDTA), which was changed every two to three days. Once decalcified, the shoulders were affixed in a solution of 10% formalin and then mounted in paraffin stacks for histological sectioning at the Beth Israel Deaconess Medical Center (BIDMC) Histology Core. These stacks were mounted so that coronal slicing could be obtained. The slices were stained with hematoxylin and eosin (H&E) and examined for any morphological changes. These slices were taken from a posterior region of humeral head to better find evidence of periarticular adhesions (Brue et al., Knee Surg. Sports Traumatol. Arthrosc., 2007, 15(8):1048-54; White et al., Radiographics, 2016, 36(3):824-39). Further slices, taken mid-coronally, were also stained with fibronectin antibodies paired with peroxidase to further examine fibrotic characteristics such as capsular thickening. Collagen III, α-smooth muscle actin, and other acute fibrotic markers were not chosen for analysis, since histologic sectioning would occur 4 months after contracture creation. The specimen chosen to undergo histological analysis were the surgical control group and the IAM group. The IAM group was chosen because this group received the highest and most frequent dose of relaxin, and was, therefore, the best candidate to showcase any morphologic changes due to relaxin administration. The contralateral shoulders from the surgical control group were used to model a healthy control shoulder for histologic comparisons.

relaxin antibody = assay: Antibody-based ELISA of PEGylated relaxin; assay type: binding; details: Quantikine ELISA, six dilutions
[5] = IAM: intra-articular, multiple doses, final measurement
[6] = IAS: intra-articular, single dose, final measurement
[7] = IVM: intravenous, multiple doses, final measurement

Substance: relaxin
- cAMP levels [1]: dose-dependent upregulation of cAMP levels
- Half-life [2]: about 2.5 hours
- Treatment of shoulder contracture, overall result ([3]; 5 intra-articular doses of 0.0005 mg over 10 days (total 0.0025 mg)): effective in treating shoulder contracture; also recorded: full recovery with increased ROM for 60 days
- ROM of healthy contralateral forelimbs / systemic joint laxity ([3]; IAM, IAS and IVM groups): no significant change from baseline; also recorded: no systemic joint laxity was present
- Final ROM, Total ROM ([3]; IAM: intra-articular, multiple doses (5 x 0.0005 mg every 2 days), final measurement): 159.13 ± 6.97 °
- Final ROM, External ROM [3, 5]: 60.27 ± 11.05 °
- Final ROM, Internal ROM [3, 5]: 98.87 ± 10.63 °
- Total ROM compared with surgical control group (statistics) ([3]; IAM, final measurement, P<0.01): significantly improved when compared with the control group
- Total ROM compared with baseline measurements (statistics) ([3]; IAM, final measurement, P=0.94): not statistically different from the baseline measurements
- Difference ROM (% Δ°), External ROM ([3]; IAM): 1.01%
- Difference ROM (% Δ°), Internal ROM ([3]; IAM): −0.27%
- Difference ROM (% Δ°), Total ROM ([3]; IAM): 0.21%
- Final ROM, Total ROM ([3]; IAS: intra-articular, single dose 0.0005 mg, final measurement): 138.40 ± 15.34 °
- Final ROM, External ROM [3, 6]: 63.13 ± 14.20 °
- Final ROM, Internal ROM [3, 6]: 75.27 ± 15.62 °
- Increase in total ROM compared with surgical control (statistics) ([3]; IAS, final measurement): not found to be significant
- Restriction of total ROM compared with baseline ([3]; IAS, final measurement): −21.72 °
- Difference ROM (% Δ°), External ROM ([3]; IAS): 5.22%
- Difference ROM (% Δ°), Internal ROM ([3]; IAS): −24.83%
- Difference ROM (% Δ°), Total ROM ([3]; IAS): −13.57%
- Improvement in ROM over the surgical control group ([3]; IAS, measurement immediately following day 0, P=0.025): 11.87 °
- Final ROM, Total ROM ([3]; IVM: intravenous, multiple doses (5 x 0.17 mg every 2 days), final measurement): 127.93 ± 16.35 °
- Final ROM, External ROM [3, 7]: 54.67 ± 15.30 °
- Final ROM, Internal ROM [3, 7]: 73.27 ± 10.35 °
- Restriction of total ROM compared with baseline ([3]; IVM, final measurement): −30.73 °
- Difference ROM (% Δ°), External ROM ([3]; IVM): −7.87%
- Difference ROM (% Δ°), Internal ROM ([3]; IVM): −26.24%
- Difference ROM (% Δ°), Total ROM ([3]; IVM): −19.42% and −19.37%
- Treatment of shoulder contracture, overall result ([3]; single intra-articular injection of 0.0005 mg): ineffective
- Capsular adhesions, H&E stained sections ([4]; IAM group, end of follow-up): lacked any apparent adhesions
- Capsular tissue thickness, fibronectin stain ([4]; IAM group, end of follow-up): return to normal thickness in capsular tissue
- Peroxidase intensity (fibronectin stain) in and around capsular tissue ([4]; IAM group, end of follow-up): reduction in peroxidase intensity
- Articular cartilage quality, OARSI grading system ([4]; rat, in vivo): between a grade 1 and grade 2 level of osteoarthritis
- Fibrillation of the articular surface, H&E ([4]; rat, in vivo): both superficial and deep fibrillation within the articular surface

Substance: PEGylated relaxin: relaxin reacted with mPEG-SVA (2000 MW); product conjugated with two PEG chains (chain 1 QLYSALANKCCHVGCTKRSLARFC; chain 2 DSWMEEVIKLCGRELVRAQIAICGMSTWS; not fully specified (bridges); ends and bridges not checked)
- Recognition by the relaxin antibody (relaxin antibody): recognized by the relaxin antibody
